The structures appear in SMILES notation. Some results are limits rather than exact numbers.

One experiment relates to pERK in NCI-H358 cells. Nature of the experiment: Cell-based pERK HTRF assay (pERK inhibition in H358 cells). As to conditions: Homo sapiens, NCI-H358, 0.5 h, pERK inhibition IC50, NCI-H358 cells, 30 min incubation; read-out: PERK in H358 cell.
On to `C=CC(=O)N1C[C@@H](F)[C@@H](N(CC)c2nc(OC[C@@]34CCCN3C[C@H](F)C4)nc3cc(-c4ccc(F)c5sc(N)c(C#N)c45)ccc23)C1` [Compound 377], for which the IC50 was less than 100 nM.
For the molecule `C=CC(=O)N1CC[C@@H](N(C)c2nc(OC[C@@]34CCCN3C[C@H](F)C4)nc3cc(-c4ccc(F)c5sc(N)c(C#N)c45)c(C(F)(F)F)cc23)[C@H]1C` [Compound 354, 4-(4-(((2R,3R)-1-acryloyl-2-methylpyrrolidin-3-yl)(methyl)amino)-2-(((2R,7aS)-2-fluorotetrahydro-1H-pyrrolizin-7a(5H)-yl)methoxy)-6-(trifluoromethyl)quinazolin-7-yl)-2-amino-7-fluorobenzo[b]thiophene-3-carbonitrile], the IC50 was less than 100 nM.
As to `C=CC(=O)N1C[C@@H](F)[C@@H](N(C)c2nc(OC[C@@]34CCCN3C[C@H](F)C4)nc3c(F)c(-c4ccc(F)c5sc(N)nc45)ccc23)C1` [Compound 353], the IC50 is less than 100 nM.
Same read-out and setting: the same measure for `C=CC(=O)N1CCC(N(C)c2nc(OC[C@@H]3CC4(CC4)CN3C)nc3c(F)c(-c4ccc(F)c5sc(N)c(C#N)c45)c(C(F)(F)F)cc23)[C@H]1COC` (stereo partly shown) [Compound 456]: less than 100 nM; for `C=CC(=O)N1C[C@@H](N(C)c2nc(OC[C@@]34CCCN3C[C@H](F)C4)nc3c(F)c(-c4ccc(F)c5sc(N)nc45)c(C(F)(F)F)cc23)C(C)(C)C1` [Compound 283]: more than 1000 nM; for `C=CC(=O)N1CCC(N(CC)c2nc(OC[C@@]34CCCN3C[C@H](F)C4)nc3c(C#N)c(-c4ccc(F)c5sc(N)c(C#N)c45)ccc23)[C@H]1COC` (stereo partly shown) [Compound 428]: 100 to 1000 nM.
On to `CC#CC(=O)N1CC(Nc2nc(OC[C@@H]3CCCN3C)nc3c(F)c(-c4ccc(F)c5sc(N)nc45)c(Cl)cc23)C1` [Compound 92, 1-[3-[[7-(2-amino-7-fluoro-1,3-benzothiazol-4-yl)-6-chloro-8-fluoro-2-[[(2S)-1-methylpyrrolidin-2-yl]methoxy]quinazolin-4-yl]amino]azetidin-1-yl]but-2-yn-1-one], for which the IC50 is more than 1000 nM.
Same read-out and setting: the same measure for `C=CC(=O)N1CCN(c2nc(OC[C@@]34CCCN3C[C@H](F)C4)nc3c(F)c(-c4ccc(F)c5sc(N)c(C#N)c45)c(C(F)(F)F)cc23)C[C@H]1C` [Compound 318]: less than 100 nM; for `C=C(F)C(=O)N1CCN(c2nc(OC[C@]34CCCN3C[C@H](F)C4)nc3c(F)c(-c4ccc(F)c5sc(N)nc45)c(C(F)(F)F)cc23)C[C@H]1C` [Compound 191]: 100 to 1000 nM.
The same measure, in the same setting: the same measure for `C=CC(=O)N1CC[C@@H](N(C)c2nc(OC[C@@]34CCCN3C[C@H](F)C4)nc3cc(-c4ccc(F)c5sc(N)c(C#N)c45)c(C(F)(F)F)cc23)C1` [Compound 306]: less than 100 nM; for `CC#CC(=O)N1CC[C@@H]2[C@H]1CN2c1nc(OCC23CCCN2CCC3)nc2c(F)c(-c3ccc(F)c4sc(N)nc34)c(-c3ccoc3)cc12` [Compound 120]: more than 1000 nM; for `C=CC(=O)N1CC[C@H](N(C)c2nc(OC[C@@]34CCCN3C[C@H](F)C4)nc3c(F)c(-c4ccc(F)c5sc(N)c(C#N)c45)c(F)cc23)C1` [Compound 336]: 100 to 1000 nM.
Take `C=CC(=O)N1C[C@H](F)[C@@H](N(C)c2nc(OC[C@@]34CCCN3C[C@H](F)C4)nc3c(F)c(-c4ccc(F)c5sc(N)c(C#N)c45)c(C(F)(F)F)cc23)C1` [Compound 327]: the IC50 is less than 100 nM.
Consider `C=CC(=O)N1C[C@H](C)N(c2nc(OC[C@@]34CCCN3C[C@H](OC)C4)nc3c(F)c(-c4ccc(F)c5sc(N)nc45)c(C(F)(F)F)cc23)C[C@H]1C` (atropisomer, axis not shown) [Compound 289], for which the IC50 was less than 100 nM.
Consider `C=CC(=O)N1CC[C@@H](N(C)c2nc(OC[C@@]34CCCN3C[C@H](F)C4)nc3c(F)c(-c4ccc(F)c5sc(N)c(C#N)c45)c(Cl)cc23)C1` [Compound 342], for which the IC50 was less than 100 nM.
As to `C=CC(=O)N1CCN(c2nc(OCC34CCCN3CCC4)nc3c(F)c(-c4ccc(F)c5sc(N)nc45)c(C(F)(F)F)cc23)CC1` [Compound 80, 1-(4-(7-(2-amino-7-fluorobenzo[d]thiazol-4-yl)-8-fluoro-2-((tetrahydro-1H-pyrrolizin-7a(5H)-yl)methoxy)-6-(trifluoromethyl)quinazolin-4-yl)piperazin-1-yl)prop-2-en-1-one], the IC50 is less than 100 nM.
The same measure, in the same setting: under `C=CC(=O)N1CCC(N(C)c2nc(OC[C@@H]3CC4(CC4)CN3C)nc3cc(-c4ccc(F)c5sc(N)c(C#N)c45)c(C#N)cc23)[C@H]1COC` (stereo partly shown) [Compound 446] stands 100 to 1000 nM.
On the same count and under the same terms, the same measure for `C=CC(=O)N1CC[C@@H](N(C)c2nc(OC[C@@]34CCCN3C[C@H](F)C4)nc3cc(-c4ccc(F)c5sc(N)nc45)c(C(F)(F)F)cc23)C1` [Compound 300]: less than 100 nM; for `C=CC(=O)N1CCN(c2ncnc3c(F)c(-c4ccc(F)c5sc(N)nc45)c(C4CCC4)cc23)CC1` [Compound 122]: more than 1000 nM.
Still for that read-out and setting: the same measure for `C=CC(=O)N1CCC(N(CC)c2nc(OC[C@@H]3CCCN3C)nc3c(F)c(-c4ccc(F)c5sc(N)c(C#N)c45)c(C(F)(F)F)cc23)[C@H]1COC` (stereo partly shown) [Compound 438]: less than 100 nM; for `C=CC(=O)N1CC[C@@H](N(C)c2nc(OC[C@@]34CCCN3C[C@H](F)C4)nc3c(F)c(-c4ccc(F)c5sc(N)c(C#N)c45)c(C(F)(F)F)cc23)[C@@H]1C` [Compound 469]: less than 100 nM; for `C=CC(=O)N1C[C@@H](F)[C@@H](N(C)c2nc(OC[C@@H]3CC4(CC4)CN3C)nc3cc(-c4ccc(F)c5sc(N)nc45)c(C(F)(F)F)cc23)C1` [Compound 351]: less than 100 nM.
Consider `C=CC(=O)N1CC(N(c2nc(OCC3CCCN3C)nc3c(F)c(-c4ccc(F)c5sc(N)nc45)c(Cl)cc23)C(C)C)C1` (stereo not shown) [Compound 159], for which the IC50 is more than 1000 nM.
With `C=CC(=O)N1C[C@@H](F)[C@@H](N(C)c2nc(OC[C@@]34CCCN3C[C@H](F)C4)nc3c(F)c(-c4ccc(F)c5sc(N)c(C#N)c45)ccc23)C1` [Compound 359], the IC50 is less than 100 nM.
`C=CC(=O)N1CC[C@@H](N(CC)c2nc(OC[C@@]34CCCN3C[C@H](F)C4)nc3c(F)c(-c4ccc(F)c5sc(N)c(C#N)c45)c(Cl)cc23)[C@H]1C` [Compound 418]: the IC50 fell in the range of 100 to 1000 nM.
`C=CC(=O)N1CCC(N(CC)c2nc(OC[C@@]34CCCN3C[C@H](F)C4)nc3c(C#N)c(-c4ccc(F)c5sc(N)c(C#N)c45)ccc23)[C@H]1C` (stereo partly drawn) [Compound 415, 4-((1-acryloyl-2-methylpyrrolidin-3-yl)(ethyl)amino)-7-(2-amino-3-cyano-7-fluorobenzo[b]thiophen-4-yl)-2-(((2R,7aS)-2-fluorotetrahydro-1H-pyrrolizin-7a(5H)-yl)methoxy)quinazoline-8-carbonitrile]: the IC50 was less than 100 nM.
Same read-out and setting: the same measure for `C=CC(=O)N1C[C@H](C)N(c2nc(N3CC(N4CC(O)C4)C3)nc3c(F)c(-c4ccc(F)c5sc(N)c(C#N)c45)c(C(F)(F)F)cc23)C[C@H]1C` [Compound 328]: less than 100 nM.
Same read-out and setting: the same measure for `CC#CC(=O)N1CC[C@@H]2[C@H]1CN2c1nc(OCC23CCCN2CCC3)nc2c(F)c(-c3ccc(F)c4sc(N)nc34)c(C(F)(F)F)cc12` [Compound 180]: more than 1000 nM; for `C=CC(=O)N1CCC(N(C)c2nc(OC[C@@]34CCCN3C[C@H](OC)C4)nc3c(F)c(-c4ccc(F)c5sc(N)c(C#N)c45)c(Cl)cc23)[C@H]1C` (stereo partly shown) [Compound 474]: less than 100 nM; for `C=CC(=O)N1CCN(c2nc(OC[C@@]34CCCN3C[C@@H](F)C4)nc3c(F)c(-c4ccc(F)c5sc(N)nc45)c(C(F)(F)F)cc23)[C@@H](C)C1` [Compound 218]: less than 100 nM.
Take `C=CC(=O)N1CC[C@@H](N(C)c2nc(OC[C@@]34CCCN3C[C@H](F)C4)nc3c(F)c(-c4ccc(F)c5sc(N)c(C#N)c45)c(C(F)(F)F)cc23)[C@H]1COC` [Compound 401]: the IC50 is less than 100 nM.
On to `C=CC(=O)N1CC(Nc2nc(OC[C@@H]3CCCN3C)nc3c(F)c(-c4ccc(F)c5nc(N)sc45)c(Cl)cc23)C1` [Compound 90], for which the IC50 is more than 1000 nM.
Take `C=CC(=O)N1CCN(c2nc(OC[C@@]34CCCN3C[C@@H](F)C4)nc3c(F)c(-c4ccc(F)c5sc(N)nc45)c(C(F)(F)F)cc23)C[C@H]1C` [Compound 220]: the IC50 was less than 100 nM.

Still in this experiment, the particulars now being: Homo sapiens, NCI-H358, 0.5 h, read-out: PERK in H358 cell.
As to `CN1CCC[C@H]1COc1nc(NC2CN(C#N)C2)c2cc(Cl)c(-c3ccc(F)c4sc(N)nc34)c(F)c2n1` [Compound 40, 3-((7-(2-amino-7-fluorobenzo[d]thiazol-4-yl)-6-chloro-8-fluoro-2-(((S)-1-methylpyrrolidin-2-yl)methoxy)quinazolin-4-yl)amino)azetidine-1-carbonitrile], the IC50 lay within 100 to 1000 nM.

The experiment is the same for the next values; noted with them: pERK inhibition IC50, NCI-H358 cells, 30 min incubation; read-out: PERK in H358 cell.
As to `C=CC(=O)N1CCC[C@@H](N(C)c2nc(OC[C@@]34CCCN3C[C@H](F)C4)nc3c(F)c(-c4ccc(F)c5sc(N)nc45)c(C(F)(F)F)cc23)C1` [Compound 245], the IC50 was more than 1000 nM.
Same read-out and setting: under `C=CC(=O)N1CC[C@@H](Nc2nc(OC[C@@]34CCCN3C[C@H](F)C4)nc3c(F)c(-c4ccc(F)c5sc(N)nc45)c(C(F)(F)F)cc23)C1` (single isomer, unassigned) [Compound 272] stands more than 1000 nM; under `C=CC(=O)N1CC[C@@H](N(C)c2nc(OC[C@@H]3CC(F)(F)CN3C)nc3c(F)c(-c4ccc(F)c5sc(N)nc45)c(C(F)(F)F)cc23)C1` (atropisomer, axis not shown) [Compound 228], less than 100 nM; under `C=CC(=O)N1CC[C@@H](N(C)c2nc(OC[C@]34CCCN3C[C@H](OC)C4)nc3c(F)c(-c4ccc(F)c5sc(N)nc45)c(C(F)(F)F)cc23)C1` (atropisomer, axis not shown) [Compound 278], 100 to 1000 nM.
Regarding `C=CC(=O)N1CC[C@@H](N(C)c2nc(OCC34CCCN3CCC4)nc3c(F)c(-c4ccc(F)c5sc(N)nc45)c(C(F)(F)F)cc23)C1` (atropisomer, axis not shown) [Compound 221], the IC50 was more than 1000 nM.
Same read-out and setting: under `C=CC(=O)N1CC[C@@H](N(C)c2nc(OC[C@@H]3C[C@@H](F)CN3C)nc3c(F)c(-c4ccc(F)c5sc(N)nc45)c(C(F)(F)F)cc23)C1` (atropisomer, axis not shown) [Compound 232] stands 100 to 1000 nM.
